Test results taken from patent publication US8946294B2, “Crystalline diacylhydrazine and the use thereof” (Intrexon Corporation, priority 2011, dated 2015).

Assays:
[1] = Dynamic vapor sorption (DVS) hygroscopicity; format: physicochemical; details: for water content gained: from 0% relative humidity to 85% r.h.
Text: Projekt Messtechnik SPS11-100n multi-sample water vapor sorption analyzer or Surface Measurement Systems Ltd. DVS-1 water vapour sorption analyzer. The sample was allowed to equilibrate at 50% r.h. before starting a pre-defined humidity program.
Program: 50% r.h.→0% r.h.→95% r.h.→50% r.h., Δr.h.=5%/h
Hygroscopicity was classified as follows: • deliquescent sufficient water is absorbed to form a liquid • very hygroscopic increase of the mass is ≧15% • hygroscopic increase of the mass is less than 15% and greater than or equal to 2% • slightly hygroscopic increase of the mass is less than 2% and greater than or equal to 0.2% • not hygroscopic increase of the mass is less than 0.2% Thermogravimetry Coupled to Fourier-Transform Infrared Spectroscopy (TG-FTIR): […]

[2] = Storage under CO2 atmosphere and 75-76% relative humidity; format: physicochemical; details: open container, 1 month; for hydrate (Form IV) or CO2 adduct formation: 1 bar CO2, 75-76% relative humidity; for Form after storage: 1 bar CO2, over saturated NaCl solution (75-76% relative humidity)
[3] = Mechanical stability (IR press and grinding, PXRD); format: physicochemical; details: pressed with 10 metric tons for 30 min; vigorously ground
Description: (§1) Two types of experiments elucidated the mechanical stability of Compound 1 Form II. First, about 200 mg of Form II was pressed in an IR press with a force of 10 metric tons (13 mm diameter of pellet) for 30 min. The resulting pellets were analyzed by PXRD. Second, about 150 mg of Form II was vigorously ground and analyzed by PXRD.
as §1, with “1 Form III. First, about” for “1 Form II. First, about”, “of Form III was vigorously” for “of Form II was vigorously”

[4] = Suspension equilibration of Form I-A in non-solvate forming solvents; format: physicochemical; details: at 5° C. and room temperature
Description: 109 mg of Compound 1 Form I-A was suspended in 2.0 mL of cyclohexane and sonicated. After stirring for 14 days at room temperature, the solid was collected by filtration and dried under vacuum for 30 minutes to give Form III.
105 mg of Compound 1 Form I-A was suspended in 0.7 mL of 3:2 (v/v) n-heptane/toluene and sonicated. After stirring for 16 days at 5° C., the solid was collected by filtration and dried under vacuum for 30 minutes to give Form III.
102 mg of Compound 1 Form I-A was suspended in 0.7 mL of 10:1 (v/v) n-heptane/toluene and sonicated. After stirring for 16 days at 5° C., the solid was collected by filtration and dried under vacuum for 30 minutes to give Form III.
115 mg of Compound 1 Form I-A was suspended in 0.7 mL of 1:10 (v/v) n-heptane/toluene and sonicated. After stirring for 16 days at 5° C., the solid was collected by filtration and dried under vacuum for 30 minutes to give Form III.

[5] = Solvent-based stability tests in water/methanol; format: physicochemical; details: for Relative stability of polymorphic forms: all three temperatures (25, 45, 55° C.); for Form: 6:4 MeOH:water, at least three days
Text: A mixture of Compound 1 Forms II, III, IV, and V was slurried in various compositions of methanol/water, or in water, for at least three days at different temperatures.

[6] = Solid state stability at 60-65° C.; format: physicochemical; details: closed cap vial
Description: Compound 1 Form II, Compound 1 Form III, and compound 1 Form IV were stored at 60-65° C. in a closed cap vial for various lengths of time. Compound 1 Forms II and III remained unchanged under these conditions. Compound 1 Form IV is converted to a mixture of Forms II and III after 10 days at 60-65C.

[7] = Reinvestigation of Form IX sample by PXRD and FT-Raman; format: physicochemical; details: PXRD and FT-Raman spectroscopy
Description: 198 mg of Compound 1 Form I-A was dissolved in 0.2 mL acetone and 2.0 mL of cyclohexane. The solution was stirred at 5° C. for 4 hours than evaporated at 5° C. for 2 hours to obtain a precipitate. The precipitate was collected by filtration and dried under vacuum for 1 hour to give Form IX (FIGS. 29 and 30). […] The sample was likely incompletely dried but might also correspond to a cyclohexane solvate.

[8] = Solvent-based stability tests in n-heptane/toluene; format: physicochemical; details: 3:2 (v/v) n-heptane:toluene, 6 days
Description: The thermodynamic stability of Form II and Form III as a function of temperature was investigated by suspension equilibration experiments.
54.6 mg of Compound 1 Form III and 61.2 mg of Compound 1 Form II were suspended in […] of 3:2 (v/v) n-heptane:toluene and sonicated. […] In this experiment the starting material likely took up ambient humidity to give Form IV.
18.5 mg of Compound 1 Form III and 28.0 mg of Compound 1 Form II were suspended in 0.4 mL of 3:2 (v/v) n-heptane:toluene and sonicated. After stirring at 60° C. for 6 days the solid was collected by filtration to give Form II.
35.4 mg of Compound 1 Form III and 46.1 mg of Compound 1 Form II were suspended in 0.4 mL of 3:2 (v/v) n-heptane:toluene and sonicated.
40.5 mg of Compound 1 Form III and 45.7 mg of Compound 1 Form II were suspended in 0.4 mL of 3:2 (v/v) n-heptane:toluene and sonicated. After stirring at 55° C. for 6 days the solid was collected by filtration to give Form II.
The solvent-based experiments are in principle thermodynamic stability tests between Compound 1 Forms II and III because mixtures of both forms were suspended. Below 45° C. […] Above 55° C. […] At 50° C. a mixture of both Form II and Form III was obtained in 3:2 (v/v) n-heptane:toluene. This is not unexpected. Close to the transition temperature, the thermodynamic driving force would be expected to be very small leading to slow transition rates. Possibly the kinetics of transformation were too slow for the transformation to occur on the timescale of the experiment. According to these suspension equilibration experiments, Form II and Form III are enantiotropic polymorphs. The thermodynamic transition temperature between Form II and Form III is between 45° C. and 55° C.

[9] = Solvent-based stability tests in n-heptane/ethanol; format: physicochemical; details: 95:5 heptane:ethanol
Description: Compound 1 Form II, Compound I Form III, or a mixture of Compound 1 Forms II and III were slurried in 95:5 heptane:ethanol (anhydrous). After one day at various temperatures, a portion of the slurry was filtered and analyzed by XRPD. A solution mediated transition occurs at 45-47° C. in 95:5 heptane:ethanol. Below 45° C.

[10] = molecular target: C. fumiferana EcR (CfEcR-DEF) (Choristoneura fumiferana, UniProt O77240); assay: Cellular gene-switch assay, WT-Cf EcR, luciferase reporter; format: cell-based; details: NIH3T3 cells
Description: (§2) Cellular gene-switch assays were performed by transfecting the following constructs in mouse embryonic fibroblast cells (NIH3T3). The wild-type D-, E-, and F-domains from a) C. fumiferana EcR (CfEcR-DEF), and b) C. fumiferana EcR with a E274V/V390I/Y410E mutation (VY-CfEcR-DEF), were fused to a GAL4-DBD and placed under the control of the CMV promoter in a pBIND vector (Promega Corporation, Madison, Wis., USA). A chimeric RXR from Homo sapiens RXRb and Locusta migratoria RXR fused to VP16-AD and under the control of an SV40e promoter has previously described. (See, Kothapalli et al., Dev. Genet. 17:319-330 (1995); Palli, et al., FEBS J. 272:5979-5990 (2005); and U.S. Pat. No. 7,935,510 B2). The inducible luciferase reporter plasmid, pFRLuc, (Stratagene Cloning Systems, La Jolla, Calif., USA) contains five copies of the GAL4 response element and a synthetic minimal promoter.
(§3) Under standard assay conditions, Compound 1 was tested at 8 doses from 0.01-33 μM and the final DMSO concentration was 0.33% in both control and treatment wells. When necessary, Compound 1 was tested at lower concentrations. After a 48-hour post-treatment and transfection incubation, the cells were assayed for luciferase activity using the Bright-GloTM Luciferase Assay System (Promega Corporation, Madison, Wis., USA) following the manufacturer's instructions. […]

[11] = molecular target: C. fumiferana EcR with a E274V/V390I/Y410E mutation (VY-CfEcR-DEF) (Choristoneura fumiferana, UniProt O77240); assay: Cellular gene-switch assay, VY-Cf EcR, luciferase reporter; format: cell-based; details: NIH3T3 cells
Description: as §2, §3

[12] = 48-hour incubation, luciferase activity
[13] = maximum fold induction relative to a positive control

With CCC[C@@H](N(NC(=O)c1cccc(OC)c1CC)C(=O)c1cc(C)cc(C)c1)C(C)(C)C [Compound 1 Form II, (R)-3,5-dimethyl-benzoic acid N-(1-tert-butyl-butyl)-N′-(2-ethyl-3-methoxy-benzoyl)-hydrazide] the “Hygroscopicity (DVS)” value [1] was “non- to slightly-hygroscopic”, the water content gained [1] was 0.1 wt.-% and the “hydrate (Form IV) or CO2 adduct formation” value [2] was “no indication of hydrate (Form IV) or CO2 adduct formation”. The Form after storage [2] was “unchanged Form II” and the “Change in crystalline form after mechanical treatment (PXRD)” value [3] was “no change in crystalline form”.
For CCC[C@@H](N(NC(=O)c1cccc(OC)c1CC)C(=O)c1cc(C)cc(C)c1)C(C)(C)C [Compound 1 Form III, (R)-3,5-dimethyl-benzoic acid N-(1-tert-butyl-butyl)-N′-(2-ethyl-3-methoxy-benzoyl)-hydrazide], the “Hygroscopicity (DVS)” value [1] was “non- to slightly-hygroscopic”, the water content gained [1] was 0.1 wt.-% and the “hydrate (Form IV) or CO2 adduct formation” value [2] was “no indication of hydrate (Form IV) or CO2 adduct formation”. For the same molecule, the Form after storage [2] was “unchanged Form III”, the “Change in crystalline form after mechanical treatment (PXRD)” value [3] was “no change in crystalline form” and the “Relative stability of forms” value [4] was “more stable than Form II”.
In the case of CCC[C@@H](N(NC(=O)c1cccc(OC)c1CC)C(=O)c1cc(C)cc(C)c1)C(C)(C)C [Compound 1 Form IV, (R)-3,5-dimethyl-benzoic acid N-(1-tert-butyl-butyl)-N′-(2-ethyl-3-methoxy-benzoyl)-hydrazide], the “Relative stability of polymorphic forms” value ([5]; methanol content of less than 60% volume) is reported as “most stable polymorphic form”, the Form after storage ([6]; 3 days) is reported as “II, III, and IV” and the Form after storage ([6]; 10 days) is reported as “II and III”. The Form after storage ([6]; 18 days) was “II and III”.
In the case of CCC[C@@H](N(NC(=O)c1cccc(OC)c1CC)C(=O)c1cc(C)cc(C)c1)C(C)(C)C [Compound 1 Form IX, (R)-3,5-dimethyl-benzoic acid N-(1-tert-butyl-butyl)-N′-(2-ethyl-3-methoxy-benzoyl)-hydrazide], the “Form on reinvestigation of the sample” value [7] is reported as “spontaneously transformed into Form II”.
For CCC[C@@H](N(NC(=O)c1cccc(OC)c1CC)C(=O)c1cc(C)cc(C)c1)C(C)(C)C [Compound 1 Form V, (R)-3,5-dimethyl-benzoic acid N-(1-tert-butyl-butyl)-N′-(2-ethyl-3-methoxy-benzoyl)-hydrazide], the “Relative stability of polymorphic forms” value ([5]; methanol content of more than 60% volume) was “most stable polymorphic form”.
For CCC[C@@H](N(NC(=O)c1cccc(OC)c1CC)C(=O)c1cc(C)cc(C)c1)C(C)(C)C [Compound 1 Forms II and III, (R)-3,5-dimethyl-benzoic acid N-(1-tert-butyl-butyl)-N′-(2-ethyl-3-methoxy-benzoyl)-hydrazide], the Form obtained ([8]; 45° C.) was “mixture of Form III and Form IV”, the Form obtained ([8]; 50° C.) was “mixture of Form II and Form III” and the Form obtained ([8]; 55° C.) was “Form II”. The Form obtained ([8]; 60° C.) was “Form II” and the “solution mediated transition temperature” value [9] was 45-47 °C.
With CCC[C@@H](N(NC(=O)c1cccc(OC)c1CC)C(=O)c1cc(C)cc(C)c1)C(C)(C)C [Compound 1 Forms II, III, IV, and V, (R)-3,5-dimethyl-benzoic acid N-(1-tert-butyl-butyl)-N′-(2-ethyl-3-methoxy-benzoyl)-hydrazide] the Form ([5]; 45° C.) was “IV and V” and the Form ([5]; 55° C.) was “IV and V”.
For CCC[C@@H](N(NC(=O)c1cccc(OC)c1CC)C(=O)c1cc(C)cc(C)c1)C(C)(C)C [Compound 1, (R)-3,5-dimethyl-benzoic acid N-(1-tert-butyl-butyl)-N′-(2-ethyl-3-methoxy-benzoyl)-hydrazide], the EC50 [10, 12] was 1.8 nM, the “Rel Max FI” value [10, 13] was 0.99 and the EC50 [11, 12] was 0.133 nM. The “Rel Max FI” value [11, 13] was 0.88.
